Test [1] relates to CPDs in human skin explants. Kind of test: CPD formation in human skin explants after UV-irradiation. In kind it is cell-based. Here is the method:
Human skin removed at elective surgery was cleaned, dissected and cut into pieces of approx. 5 mm×5 mm. Each piece was placed in a well of a 96 well plate, with individual plates prepared to assess the effects 3 hrs post treatment. All samples were performed in triplicate for each treatment. Skin was subjected to UV-radiation from solar-simulated UV source for 1.5 h (UVR), or non-irradiation (SHAM). Given that human skin is thicker than mouse skin, human skin explants were exposed to a radiation dose three times higher than that used for mouse skin, i.e., 20 J/cm2 versus 7 J/cm2, respectively, and the output spectrum of the laboratory solar simulator has previously been reported (Rybchyn MS et al, J Invest Dermatol. 2018 May; 138(5):1146-1156) and treated immediately after with a vehicle control, Calcitriol (1 nM) or the polypeptide IK34720 (SEQ ID NO: 3) at concentrations of 50 μM, 250 μM or 500 uM.
Samples harvested at 3 hrs were fixed, section, stained and quantified as described in Example 5.

Test [2] concerns apoptotic keratinocytes. Briefly: Sunburn (apoptotic) cells in mouse skin after UV-irradiation. The settings on record: topical 20, 100 or 200 ug in 100 uL immediately after UVR; FIG. 11. In kind it is in vivo, Skh:hr1 hairless mice. Here is the method: UV-induced DNA damage in the form of elevated CPDs can induce mutations in epidermal cells leading to the development of cancer cells. Reduction of CPDs through application of DNA repair enzymes prevents the risk of UV-induced skin cancer and reduce the level of apoptotic cells following UV-induced damage. The number of apoptotic skin cells following UV-irradiation was assessed in accordance with the following protocol.
Female Skh:hr1 hairless mice were prepared, irradiated and biopsied according to the methods of Example 4. Prior to biopsy, and immediately after irradiation, mice were treated with either a base lotion vehicle (negative control), 11.4 pmol/cm2 of Calcitriol in vehicle (positive control) the polypeptide IK34720 (SEQ ID NO: 3) in water, at 20 ug, 100 ug or 200 ug in a total volume of 100 uL.
Biopsies were taken from UV-irradiated dorsal skin 3 hrs post-UVR and fixed in Histochoice fixative (Amresco, Solon OH) for 6 h. Skin samples were paraffin-embedded and 5 micrometre sections were cut for all analyses. Sections (24 h after UV) were subjected to routine hematoxylin and eosin staining for visualization of sunburn cells. The stained sections were examined under a Zeiss-Axioplan light microscope at 40× magnification, and the number of sunburn cells per linear millimetre of skin section recorded.

Test [3] has as its system CREB-S133. Kind of test: CREB phosphorylation in primary keratinocytes after solar simulated UV-irradiation (western blot). In kind it is cell-based. To be noted: 0.1, 1 and 5 μM added immediately after ssUV, FIG. 3A. Here is the method:
The influence of the polypeptide IK34720 (SEQ ID NO: 3) on CREB phosphorylation was assessed using the following protocol.
Keratinocytes were harvested and cultured as previously described (Gupta et al., J Invest Dermatol, 2007, 127(3):707-215). Keratinocytes, (passages 1-5) from 3 independent donors were used in the experiments illustrated in FIG. 3.
Positive control treatment (denoted “D” in FIG. 3) was prepared by solubilizing Calcitriol (1,25-dihydroxyvitamin D3 (1,25(OH)2D3)—Cayman Chemical, Mich., USA) in 100% spectroscopic ethanol (Merck, Darmstadt, Germany) and the final concentration was determined by spectroscopy (NanoDrop 2000, Thermo Fisher Scientific, Mass., USA). The polypeptide IK34720 (SEQ ID NO: 3) was solubilised in phosphate buffered saline (PBS) to a concentration of 1 mM at pH 7.2. A vehicle (denoted as “V” in FIG. 3) constituting 0.1% (v/v) spectroscopic ethanol and 0.1% (v/v) PBS was prepared for use as a negative control.
Cultured cells were irradiated by solar simulated UV-irradiation (ssUV) using an Oriel 1000W xenon-arc lamp (Stratford, Conn., USA). Irradiation was administered at an energy level of 400 mJ/cm^2 for UVB and 3600 mJ/cm^2 for UVA (total 4000 mJ/cm^2), measured by an OL754 radiometer (Optronics Laboratories Inc., Orlando, Fla.). This dosage equates to approximately 4 min irradiation of the sun at 12 noon in October in Sydney, Australia. […]

Test [4] deals with primary keratinocytes. Kind of test: ATP levels in primary keratinocytes exposed to ssUV (CellTiter-Glo 2.0 Assay). In kind it is cell-based. The settings on record: 1.5 hours after UVR, FIG. 4. Here is the method: The influence of the polypeptide IK34720 (SEQ ID NO: 3) on intracellular ATP following UV exposure was assessed using the following protocol.
Primary keratinocytes were harvested as described above in Example 2 and were either exposed to ssUV-irradiation (UVR), as described above in Example 2 or not irradiated (SHAM), in the presence or absence of Calcitriol (positive control) or polypeptide IK34720 (SEQ ID NO: 3; RSKAKNPLYRRRRRRRRR), at the concentrations described in Example 2.
ATP levels were determined 1.5 hours after UVR using the CellTiter-Glo® 2.0 Assay (Promega, Wis., USA) as described previously (Rybchyn et al., vide supra, 2017). All data in FIG. 4 is shown as mean±SD. *p<0.05, **p<0.01. Cells were prepared and irradiated as described above.
A general note: Cellular ATP, detected with luciferase, serves as a proxy for viable cell number.

The test system of test [5] is CPD formation in the skin. Briefly: CPD formation in the skin of mice after acute UV-irradiation. In kind it is in vivo, Skh:hr1 hairless mice. To be noted: topical immediately after UVR, doses as Example 4; 3 hours post-UVR; vs vehicle. Here is the method:
Female Skh:hr1 hairless mice were exposed to solar simulated UV-irradiation as described above at Example 4. Immediately after irradiation mice were treated topically on the dorsal surface also as described in Example 4. Subsequently, skin was fixed at 3 hours post-UVR, and subjected to immuno-histochemical staining using the antibody directed against thymine dimers (CPD) described above at 10 μg/ml. […] In FIG. 9, dark staining in nuclei indicates the presence of thymine dimers (CPD), and the % area stained is presented. Immunohistology was quantified as per Example 4.

For the sequence “RSKAKNPLYRRRRRRRRR [IK34720, 18-residue polypeptide: … with a C-terminal polyarginine region of 8 arginines]”, the “percentage of CPD positive cells” value in test [1] (500 μM, 3 hrs, two individuals, FIG. 13A and B) was “statistically significantly reduced”. Also, the “cells having CPDs (stained cells)” value in test [1] (3 hrs post irradiation/treatment, Calcitriol 1 nM, IK34720 50, 250 or 500 uM, FIG. 12) is listed as “fewer stained cells”. Also, in test [2], the “number of apoptotic keratinocytes (sunburn cells)” value is on record as “reduced the number of apoptotic keratinocytes”. Also, the “UV-induced phosphorylation of CREB S-133” value in test [3] was “inhibits UV-induced phosphorylation of serine at position 133 of CREB”. Further, the ATP levels entry in test [4] is listed as “enhanced the ATP levels”. Moreover, the “CPD formation in the skin (CPD nuclei)” value in test [5] is on record as “inhibits CPD formation”.

(Values after US20220409510A1, “Polypeptides And Methods For Improving Skin Conditions” (Interk Peptide Therapeutics Limited, priority 2018, published 2022).)
